Test system: patients with headache/migraine
Assay: Blink reflex measuring device: blink-associated parameters before and after treatment, by treatment modality
Format: in vivo, human
Excerpt: In embodiments, the one or more blink-associated parameters are selected from: • (a) latency, optionally in milliseconds, comprising a time differential between stimulation and eyelid movement, e.g., one or more of upper eyelid or lower eyelid; • (b) differential latency, optionally in milliseconds, comprising a time differential between the start of ipsilateral eye movement and the start of contralateral eye movement; • (c) delta 30, comprising a time difference between ipsilateral eye and contralateral eye movement; • (d) eyelid excursion, optionally in pixels, comprising a distance traveled by the eyelid from the tonic lid position to closed position; • (e) initial lid velocity, optionally in pixels/msec, comprising an average eyelid speed following start of eyelid movement, e.g., the first about 5 frames, the first about 7 frames, or the first about 10 frames; • (f) time to close, optionally in log scale, comprising a time for lid to travel from tonic lid position to the closed position; • (g) time to open, optionally in log scale, comprising a time for lid to travel from closed position back to tonic lid position; • (h) time under threshold, optionally in log scale, comprising a time that the eyelid spends below the threshold position; • (i) number of oscillations, comprising cycles of up and down upper eyelid movement after a stimulated blink; • (j) total blink time, optionally in log scale, comprising a time from start of eyelid movement until it returns to its tonic lid position; • (k) number of blinks; • (l) blink rate, optionally per minute; • (m) area under curve, optionally in pixels; • (n) maximum closing velocity, optionally in […], comprising a maximum velocity during eyelid closure; • (o) maximum opening velocity, optionally in […], comprising a maximum velocity during eyelid opening; and • (p) time to first oscillation, optionally in log scale, comprising the elapsed time between the eyelid returning within threshold of a tonic position for a stimulated blink and the onset of the next unstimulated blink.
In this study, a population of male and female migraine patients are assessed for blink reflex response using the blink reflex measuring device. The patients in this study are tested when they visit the doctor during their routine office visits and/or before and after a doctor prescribed therapeutic intervention.
Blink reflex measuring device was used for collecting multiple blink-associated parameters from patients with headache/migraine before and after treatment undergoing treatment.
Blink reflex measuring device was used for collecting multiple blink-associated parameters from patients with headache/migraine before and after undergoing different treatments. The different treatments were intravenous (IV) ketamine infusion therapy, sphenopalatine ganglion (SPG) block+peripheral nerve block (PNB), and IV ketamine+SPG+PNB. The results are shown in TABLE 2, FIGS. 34-6D and FIG. 7.
TABLES 4-6 show the variable changes based on right and left eye by treatment modality: intravenous (IV) ketamine infusion therapy (TABLE 4); sphenopalatine ganglion (SPG) block+peripheral nerve block (PNB) (TABLE 5); and IV ketamine+SPG+PNB (TABLE 6). It is important to note that whereas FIGS. 34-6D and FIG. 7 show the changes based on treatment modality of each variable and show the overall changes predicated on both right and left eye, TABLES 4-6 break down the variables by right and left eye changes.

[1] = left eye, post treatment, Table 4
[2] = post-treatment average, patients with headache/migraine, by treatment modality
[3] = right eye, post treatment, Table 4

With CNC1(c2ccccc2Cl)CCCCC1=O (stereo not drawn) [ketamine] as the compound, how does the “Blink Rate, Left Eye Post Tx” value (left eye, post treatment) read?
Its value is 89.415 per min.

And the “Blinks, Left Eye Post Tx” value (left eye, post treatment)?
The value was 5.945 qty.

What about the “Delta 30, Left Eye Post Tx” value (left eye, post treatment) of the same compound?
Its value is 9.328 ms.

What about the “Differential Latency, Left Eye Post Tx” value (left eye, post treatment) of the same compound?
The value was 4.625 ms.

And the “Excursions, Left Eye Post Tx” value (left eye, post treatment)?
Its value is 91.548 pixels.

What about the “Latency, Left Eye Post Tx” value (left eye, post treatment) of the same compound?
Its value is 53.958 ms.

And the “Oscillations Rate, Left Eye Post Tx” value (left eye, post treatment)?
Its value is 2.293 per min.

And the “Oscillations, Left Eye Post Tx” value (left eye, post treatment)?
The value was 9.914 no.

And the “Time to Close, Left Eye Post Tx” value (left eye, post treatment)?
The value was 27.686 ms.

And the “Time to First Oscillation, Left Eye Post Tx” value (left eye, post treatment)?
The value was 7.301 Ln ms.

What about the “Time to Open, Left Eye Post Tx” value (left eye, post treatment) of the same compound?
Its value is 286.813 ms.

What about the “Area Under the Curve, Left Eye Post Tx” value [1] of the same compound?
Its value is 10.250 pixels.

What about the “Time Under 20, Left Eye Post Tx” value [1] of the same compound?
The value was 5.228 Ln ms.

What about the “Blink reflex differences pre and post treatment via Blink Reflex Measuring Device” value (patients having a migraine, p=0.05) of the same compound?
Its value is “Statistical differences”.

What about the “Area Under Curve, POST-TX AVERAGE” value [2] of the same compound?
Its value is 29522.632 pixels.

And the “Blink Rate, POST-TX AVERAGE” value [2]?
The value was 83.490 per min.

What about the “Blinks, POST-TX AVERAGE” value [2] of the same compound?
The value was 5.345 qty.

And the “Delta 30, POST-TX AVERAGE” value [2]?
The value was 7.435 ms.

What about the “Differential Latency, POST-TX AVERAGE” value [2] of the same compound?
Its value is 6.145 ms.

And the “Excursion, POST-TX AVERAGE” value [2]?
The value was 88.575 pixels.

And the “Latency, POST-TX AVERAGE” value [2]?
Its value is 49.827 ms.

And the “Oscillations, POST-TX AVERAGE” value [2]?
The value was 10.273 no.

And the “Time Under 20, POST-TX AVERAGE” value [2]?
Its value is 5.237 Ln ms.

What about the “Time to Close, POST-TX AVERAGE” value [2] of the same compound?
The value was 29.930 ms.

What about the “Time to First Oscillation, POST-TX AVERAGE” value [2] of the same compound?
The value was 7.412 Ln ms.

What about the “Time to Open, POST-TX AVERAGE” value [2] of the same compound?
The value was 307.108 ms.

And the “Blink Rate, Right Eye Post Tx” value (right eye, post treatment)?
Its value is 73.691 per min.

What about the “Blinks, Right Eye Post Tx” value (right eye, post treatment) of the same compound?
Its value is 5.170 qty.

And the “Delta 30, Right Eye Post Tx” value (right eye, post treatment)?
Its value is 5.766 ms.

What about the “Differential Latency, Right Eye Post Tx” value (right eye, post treatment) of the same compound?
Its value is 5.438 ms.

And the “Excursions, Right Eye Post Tx” value (right eye, post treatment)?
The value was 92.605 pixels.

What about the “Latency, Right Eye Post Tx” value (right eye, post treatment) of the same compound?
The value was 52.583 ms.

And the “Oscillations Rate, Right Eye Post Tx” value (right eye, post treatment)?
Its value is 1.966 per min.

And the “Oscillations, Right Eye Post Tx” value (right eye, post treatment)?
The value was 8.606 no.

What about the “Time to Close, Right Eye Post Tx” value (right eye, post treatment) of the same compound?
The value was 31.119 ms.

What about the “Time to First Oscillation, Right Eye Post Tx” value (right eye, post treatment) of the same compound?
The value was 7.517 Ln ms.

And the “Time to Open, Right Eye Post Tx” value (right eye, post treatment)?
Its value is 258.318 ms.

And the “Area Under the Curve, Right Eye Post Tx” value [3]?
Its value is 10.157 pixels.

What about the “Time Under 20, Right Eye Post Tx” value [3] of the same compound?
The value was 5.099 Ln ms.
